Activity data for 4 compounds are collected here from ChEMBL document CHEMBL2074117, “Influence of redox-active compounds and PXR-activators on human MRP1 and MRP2 gene expression” (Toxicology, 2002).

Data set [1] concerns the target T1, ATP-binding cassette sub-family C member 2 (Homo sapiens, UniProt Q92887). Briefly: TP_TRANSPORTER: Western blot, HepG2 cells. It is filed as functional, cell-based.
The target of data set [2] is T1, ATP-binding cassette sub-family C member 2. As to the kind of experiment: TP_TRANSPORTER: RT-PCR in HepG2 cells. The format is functional, cell-based.

The structures appear in SMILES notation.

T1 sequence (Q92887 whole entry): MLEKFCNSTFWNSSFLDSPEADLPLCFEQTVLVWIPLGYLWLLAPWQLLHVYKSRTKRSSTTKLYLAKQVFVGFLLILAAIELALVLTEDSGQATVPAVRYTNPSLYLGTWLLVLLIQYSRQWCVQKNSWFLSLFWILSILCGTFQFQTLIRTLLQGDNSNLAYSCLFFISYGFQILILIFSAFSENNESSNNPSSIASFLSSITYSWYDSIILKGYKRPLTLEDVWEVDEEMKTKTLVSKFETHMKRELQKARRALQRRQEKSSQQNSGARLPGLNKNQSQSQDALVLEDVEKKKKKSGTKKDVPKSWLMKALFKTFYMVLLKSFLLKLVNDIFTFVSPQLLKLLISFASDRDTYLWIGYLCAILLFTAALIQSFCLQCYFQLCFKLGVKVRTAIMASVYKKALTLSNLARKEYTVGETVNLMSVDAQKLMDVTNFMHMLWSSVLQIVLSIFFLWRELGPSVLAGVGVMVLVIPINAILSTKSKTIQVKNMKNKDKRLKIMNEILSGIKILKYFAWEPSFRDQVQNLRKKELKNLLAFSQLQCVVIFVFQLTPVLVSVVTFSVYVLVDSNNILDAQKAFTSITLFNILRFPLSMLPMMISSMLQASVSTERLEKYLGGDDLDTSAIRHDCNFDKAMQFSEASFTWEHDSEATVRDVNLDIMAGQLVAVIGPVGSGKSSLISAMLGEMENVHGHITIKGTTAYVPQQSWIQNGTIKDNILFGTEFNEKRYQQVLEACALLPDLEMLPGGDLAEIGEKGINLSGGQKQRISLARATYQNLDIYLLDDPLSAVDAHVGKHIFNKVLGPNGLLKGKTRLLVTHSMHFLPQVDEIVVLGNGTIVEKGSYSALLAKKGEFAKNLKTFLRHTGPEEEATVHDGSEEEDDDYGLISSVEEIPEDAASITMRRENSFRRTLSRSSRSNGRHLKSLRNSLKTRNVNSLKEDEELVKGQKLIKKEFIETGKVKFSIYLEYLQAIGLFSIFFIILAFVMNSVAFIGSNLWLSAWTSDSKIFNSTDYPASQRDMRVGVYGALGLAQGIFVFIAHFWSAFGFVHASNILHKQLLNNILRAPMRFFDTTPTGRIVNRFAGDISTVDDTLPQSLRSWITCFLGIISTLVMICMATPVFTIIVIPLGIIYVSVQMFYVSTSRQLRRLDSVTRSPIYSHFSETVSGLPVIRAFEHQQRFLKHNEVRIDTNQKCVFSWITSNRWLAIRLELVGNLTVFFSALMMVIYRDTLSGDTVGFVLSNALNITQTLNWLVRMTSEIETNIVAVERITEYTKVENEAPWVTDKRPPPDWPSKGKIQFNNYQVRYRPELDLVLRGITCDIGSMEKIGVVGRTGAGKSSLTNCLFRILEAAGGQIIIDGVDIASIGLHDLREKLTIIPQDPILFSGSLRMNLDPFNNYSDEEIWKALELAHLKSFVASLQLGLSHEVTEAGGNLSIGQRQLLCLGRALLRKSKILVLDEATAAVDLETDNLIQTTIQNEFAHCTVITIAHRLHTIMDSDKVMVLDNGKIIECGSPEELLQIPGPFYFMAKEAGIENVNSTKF

On to `CO[C@H]1/C=C/O[C@@]2(C)Oc3c(C)c(O)c4c(O)c(c(/C=N/N5CCN(C)CC5)c(O)c4c3C2=O)NC(=O)/C(C)=C\C=C\[C@H](C)[C@H](O)[C@@H](C)[C@@H](O)[C@@H](C)[C@H](OC(C)=O)[C@@H]1C` [RIFAMPIN], for which the Activity entry in data set [1] and in data set [2] was “inducer [+]” throughout.
In the case of `O[As](O)O` [TRIHYDROXYARSENITE(III)], the Activity entry in data set [1] and in data set [2] was “inducer [+]” throughout.
`Clc1ccccc1C(c1ccccc1)(c1ccccc1)n1ccnc1` [CLOTRIMAZOLE]: the Activity result in data set [1] and in data set [2] was “inducer [+]” each time.
For `CC(C)(C)c1cc(O)ccc1O` [E319], the Activity entry in data set [1] and in data set [2] was “inducer [+]” in each case.
